Measurements from ChEMBL document CHEMBL2331517, “Songaricalarins A-E, cytotoxic oplopane sesquiterpenes from Ligularia songarica” (J Nat Prod, 2013).
Values after ≈ are worked out from the molar mass of the structure shown.

Experiment: Cytotoxicity against human KBVIN cells
Format: functional, cell-based

COc1cc([C@@H]2c3cc4c(cc3[C@@H](O[C@@H]3O[C@@H]5CO[C@@H](C)O[C@H]5[C@H](O)[C@H]3O)[C@H]3COC(=O)[C@H]23)OCO4)cc(OC)c1O [ETOPOSIDE]
EC50: 8.8 µg/mL (≈ 15 µM)
